Measurements published in patent publication US20230064976A1, “AMORPHOUS FORM OR CRYSTALLINE FORM OF 2-INDOLINOLINOLOLYLSPIRONONE COMPOUNDS OR THEIR SALTS, SOLVENT COMPLEXES” (ASCENTAGE PHARMA (SUZHOU) CO., LTD., priority 2020, published 2023).
One block for each compound: values may come before it.

Legend:
Assay type in all cases: physicochemical
[1] = Stability test of crystalline form XI (different temperature and humidity)
Text: Place the sample of Form XI under high temperature, high humidity 75% RH conditions, and sample on Day 0, Day 5, Day 10 and Day 30 to investigate its content, related substances and crystal forms.

[2] = Dynamic Vapour Sorption (DVS) hygroscopicity test; conditions: for Weight Gain (80% RH): DVS
Experimental: The instruments used and their parameters are as follows: XPRD—X-ray powder diffraction, using Bruker D8 Advance Diffractometer to characterize solids. Copper target wavelength is 1.54 Å Kα radiation (40 kV, 40 mA), 0-20 goniometer, Mo monochromator, Lynxeye detector, detection angle is 3-40° 2θ/3-30° 20, step size It is 0.02° 20, the speed is 0.2 s/step, and the detection sample weight is >2 mg. TGA—Thermo gravimetric analysis, using TA Instruments Q500 TGA, the detection sample size is 1 mg-10 mg, the common detection method is Hi-Res sensitivity 3.0, Ramp 10.00° C./min, res 5.0 to 150.00° C., Ramp 10.00° C./min to 350° C. DSC—differential scanning calorimetry analysis, using TA Instruments Q200 DSC, the detection sample weight is 0.5 mg-5 mg, the gas flow rate is 40 mL/min, the common detection method is Equilibrate, 20° C., Ramp 10° C./min to 280° C.-300° C. DVS—Dynamic Vapour Sorption analysis, the detection sample weight is 1 mg-10 mg, the gas flow rate is 10 mL/min, the common detection method is equilibrium at 25° C., humidity 0%, isothermal for 90 minutes, if the weight percentage is less than 0.0100, the next isothermal test is aborted for 15.00 minutes, and the 10% step humidity is 80.00% every 90 minutes. If the weight percentage is less than 0.0100, the next isothermal test is aborted for 15.00 minutes, and the step humidity is 10% to 0.00% every 90 minutes. For the above identification and characterization results of XPRD, TGA, DSC, and DVS, please refer to FIG. 1-82, Table 1-15 and related description.
Take about 10 mg of crystalline form XI sample for Dynamic Vapour Sorption (DVS) test. The conclusions are described in Table 23 below.
About 10 mg of amorphous form XVI sample was taken for dynamic moisture adsorption (DVS) test. The conclusions are described in Table 25 below:
Dynamic water sorption (DVS) was performed on hydrobromide and maleate crystalline samples.

[3] = Stability testing of amorphous form XVI (60° C., 90% RH, light)
Experimental: The amorphous XVI sample was placed at 60° C., with high humidity 90% RH, under the light condition (light condition: 4500 Lux), and sampled on Day 0/5/10 to investigate its content, related substances and crystal form.

[4] = Competitive experiment of crystalline form X and crystalline form XI (suspension stirring, XRD); conditions: acetone/n-heptane, dichloromethane/n-heptane, acetone/water 1/3 v:v; room temperature 1-3 days
Text: Take an equal amount of crystalline form X and crystalline form XI samples, mix them uniformly, and sample for XRD detection.

[5] = Stability test for salt form screening (maleate crystalline form V; HPLC, XRD)
Experimental: Weigh 30 mg of compound (maleate crystalline form V) into a 8 mL glass bottle, then place it at high temperature (60° C., open), high humidity (room temperature/75% RH, open) and light (room temperature, white light: 6980 lux, ultraviolet 282 μW/cm2), take samples on Day 5/10/30 respectively for testing (HPLC, XRD).

[6] = Day 5—light condition (4500 Lux)
[7] = Day 10—light condition (4500 Lux)

SMILES: CCN1C(C(=O)NC23CCC(C(=O)O)(CC2)CC3)C(c2cccc(Cl)c2F)C2(C(=O)Nc3cc(Cl)ccc32)C12CCCCC2.O (stereo not shown) [Form XI]
content and purity (summary) ([1]; 5 days, 10 days and 30 days, high temperature and high humidity): almost unchanged | Total impurity content (%) ([1]; Day 0): 0.31% | XPRD ([1]; Day 0): Form XI | content (%) ([1]; Day 0): 99.5% | Total impurity content (%) ([1]; Day 5—40° C.): 0.21% | content (%) ([1]; Day 5—40° C.): 99.6% | Total impurity content (%) ([1]; Day 5—60° C.): 0.15% | content (%) ([1]; Day 5—60° C.): 99.1% | Total impurity content (%) ([1]; Day 5—75% RH): 0.16% | content (%) ([1]; Day 5—75% RH): 99.1% | Total impurity content (%) ([1]; Day 10—40° C.): 0.25% | XPRD ([1]; Day 10—40° C.): Form XI | content (%) ([1]; Day 10—40° C.): 99.1% | Total impurity content (%) ([1]; Day 10—60° C.): 0.25% | XPRD ([1]; Day 10—60° C.): Form XI | content (%) ([1]; Day 10—60° C.): 100.1% | Total impurity content (%) ([1]; Day 10—75% RH): 0.24% | XPRD ([1]; Day 10—75% RH): Form XI | content (%) ([1]; Day 10—75% RH): 99.3% | Total impurity content (%) ([1]; Day 30—40° C.): 0.33% | XPRD ([1]; Day 30—40° C.): Form XI | content (%) ([1]; Day 30—40° C.): 98.9% | Total impurity content (%) ([1]; Day 30—75% RH): 0.32% | XPRD ([1]; Day 30—75% RH): Form XI | content (%) ([1]; Day 30—75% RH): 100.5% | XRPD before and after DVS [2]: Unchanged | water absorption during storage (conclusion from DVS) [2]: not easy to absorb water | DVS weight change of 0% RH-80% RH [2]: 0.17±0.05% | Weight Gain (80% RH) [2]: 0.01%

SMILES: CCN1C(C(=O)NC23CCC(C(=O)O)(CC2)CC3)C(c2cccc(Cl)c2F)C2(C(=O)Nc3cc(Cl)ccc32)C12CCCCC2 (stereo not shown) [Form XVI]
Total impurity content (%) ([3]; Day 0): 0.38% | XPRD ([3]; Day 0): Amorphous | content (%) ([3]; Day 0): 99.4% | Total impurity content (%) ([3]; Day 5—60° C.): 0.48% | content (%) ([3]; Day 5—60° C.): 101.7% | Total impurity content (%) ([3]; Day 5—90% RH): 0.40% | content (%) ([3]; Day 5—90% RH): 102.1% | Total impurity content (%) [3, 6]: 0.44% | content (%) [3, 6]: 102.4% | Total impurity content (%) ([3]; Day 10—60° C.): 0.54% | XPRD ([3]; Day 10—60° C.): Amorphous | content (%) ([3]; Day 10—60° C.): 99.0% | Total impurity content (%) ([3]; Day 10—90% RH): 0.40% | XPRD ([3]; Day 10—90% RH): Amorphous | content (%) ([3]; Day 10—90% RH): 101.1% | Total impurity content (%) [3, 7]: 0.57% | XPRD [3, 7]: Amorphous | content (%) [3, 7]: 100.4% | XRPD before and after DVS [2]: Unchanged | water absorption during storage (conclusion from DVS) [2]: not easy to absorb water | DVS weight change of 0% RH-80% RH [2]: 2.5±0.5% | Weight Gain (80% RH) [2]: 2.32%

SMILES: Br.CCN1C(C(=O)NC23CCC(C(=O)O)(CC2)CC3)C(c2cccc(Cl)c2F)C2(C(=O)Nc3cc(Cl)ccc32)C12CCCCC2 (stereo not shown) [hydrobromide crystalline form VI]
Weight Gain (80% RH) [2]: 5.1% (hygroscopic)

Results, then the compound that gave them:

DVS water absorption 0% RH-60% RH ([2]; 0% RH-60% RH): < 0.1% | DVS weight change 60% RH-80% RH ([2]; 60% RH-80% RH): 1.6±0.2% | form after stirring mixed sample of form X and form XI (XRD) [4]: converted to crystalline form XI
SMILES: CCN1C(C(=O)NC23CCC(C(=O)O)(CC2)CC3)C(c2cccc(Cl)c2F)C2(C(=O)Nc3cc(Cl)ccc32)C12CCCCC2 (stereo not shown) [crystalline form X]

Total impurity content (%) ([5]; Day 0): 1.20% | XPRD ([5]; Day 0): Form V | content and purity (summary) ([5]; Day 5/10/30, high temperature, high humidity and light): almost unchanged | Total impurity content (%) ([5]; Day 5—60° C.): 1.20% | XPRD ([5]; Day 5—60° C.): Form V | Total impurity content (%) ([5]; Day 5—75% RH): 1.10% | XPRD ([5]; Day 5—75% RH): Form V | Total impurity content (%) ([5]; Day 5—light): 1.10% | XPRD ([5]; Day 5—light): Form V | Total impurity content (%) ([5]; Day 10—60° C.): 1.20% | XPRD ([5]; Day 10—60° C.): Form V | Total impurity content (%) ([5]; Day 10—75% RH): 1.20% | XPRD ([5]; Day 10—75% RH): Form V | Total impurity content (%) ([5]; Day 10—light): 1.10% | XPRD ([5]; Day 10—light): Form V | Total impurity content (%) ([5]; Day 30—60° C.): 1.20% | XPRD ([5]; Day 30—60° C.): Form V | Total impurity content (%) ([5]; Day 30—75% RH): 1.10% | XPRD ([5]; Day 30—75% RH): Form V | XRPD before and after DVS [2]: Unchanged | Weight Gain (80% RH) [2]: 1.2% (slightly
SMILES: CCN1C(C(=O)NC23CCC(C(=O)O)(CC2)CC3)C(c2cccc(Cl)c2F)C2(C(=O)Nc3cc(Cl)ccc32)C12CCCCC2.O=C(O)C=CC(=O)O (stereo not shown) [maleate crystalline form V]
